Read-outs that look alike come from different tables or passages of the source.
How the values were obtained:
[1] = In vivo pharmacokinetic study in male Sprague-Dawley rats (IV and PO); design: species or system Sprague-Dawley rat; conditions: for MRT inf: read-out: MRT0-inf
Experimental: Test 6: In Vivo Pharmacokinetic Study of the Test Compounds in Rats
To study the pharmacokinetic behavior of the compounds in rats and to evaluate their pharmacokinetic characteristics, their concentrations in plasma were determined by LC/MS/MS.
Appropriate amount of sample was added to a certain amount of pure water, the pH were adjusted to 7-8, to prepare to be 1 mg/mL (filtered and clarified) and 2 mg/mL (with a few particles of suspension) for IV and PO administration. • 2.4 Administration • 18 male SD rats were randomly assigned to 6 treatment groups, 3 rats in each group. Male rats were administrated IV and PO respectively after fasting overnight. The IV dosage was 2 mg/kg, the dose volume was 2 mL/kg, the PO dosage was 10 mg/kg, and the dose volume was 5 mL/kg. 3. Experimental Procedure
For IV group, 250 μL blood samples were collected before administration, and 0.083, 0.25, 0.5, 1, 2, 4, 8, 24 hours after administration, and placed in K2-EDTA anticoagulant tube, centrifuged at 3000 rpm for 15 minutes, plasma was separated, stored at −80° C. For PO Group, blood samples were collected before administration, and 0.25, 0.5, 1, 2, 4, 8, 24 hours after administration, and the other operations were the same as group IV. The content of the test compounds in the plasma of rats after administration of IV and PO were determined by LC/MS/MS method. The linear range of the assay was 6.00-18000 nM, and the lower limit of quantification was 6 nM; the plasma samples were analyzed by pretreatment with precipitated proteins.

[2] = Stability of compounds in human plasma; assay type: in vitro ADME
Experimental: Test 5: Evaluation of the Stability of Compounds in Rat Plasma and Human Plasma
2. Experimental Procedures and Methods • 2.1 Prior to the experiment, the frozen plasma stored at −40° C. was thawed at room temperature and incubated in a 37° C. water bath for 5-10 min; centrifuged at 4000 rpm for 5 min, to remove impurities and lipids in the plasma. Measured the value of pH, if required, adjusted it to 7.4±0.1. • 2.2 Prepared 400 μM intermediate solution by diluting 4 μL of the working solution (10 mM) with 96 μL DMSO. • 2.3 Preparation of incubation samples: Remove 3 μL of intermediate solution (400 μM) to mix with 597 μL of blank plasma to achieve 2 μM of final concentration. Incubate each time point samples (0 min, 10 min, 30 min, 60 min, 120 min, in duplicate) at 37° C. in water bath. • 2.4 An aliquot of 100 μL samples of the final spiked plasma for each time point were removed to sample collected plates, added 400 μL of stop solution (200 ng/mL Tolbutamide plus 20 ng/mL Buspirone in 50% ACN/MeOH) to precipitate protein. Mixed thoroughly. • 2.5 Centrifuged each plate at 4,000 rpm for 20 min. Transfered an aliquot of supernatant (100 μL) from each well to sample plate and mixed with 200 μL ultra pure water. Shaked the plate at 800 rpm for about 10 min before submitting to LC-MS/MS analysis. 3. Experimental Data Analysis
The ratio of the peak area to the internal standard peak area was used to assess the decrease of the test compound to be measured. The % remaining of the test compound after incubation in plasma was calculated using following equation: % Remaining=100×(PAR at appointed incubation time/PAR at T0 time)
wherein PAR is the peak area ratio of analyte versus internal standard (IS)
The appointed incubation time points are: 0 min, 10 min, 30 min, 60 min, 120 min; T0: Samples prior to incubation.

[3] = male SD rats, IV 2 mpk, 2 mg/kg
[4] = male, Sprague-Dawley, rat, plasma, iv, 2 mg/kg, male SD rats, IV 2 mpk
[5] = male, Sprague-Dawley, rat, plasma, po, 10 mg/kg, male SD rats, PO 10 mpk

For `O=C(O)CSc1nnc(Br)n1-c1ccc(C2CC2)c2ccccc12` (single isomer, unassigned) [(+)-Lesinurad], the “Transformation of the atropisomer in vivo” value ([1]; SD rats, IV and PO) was “no transformation was observed”, the AUC0-inf [1, 3] was 15.03902 ± 1.0268 µM·h and the Cl [1, 3] was 5.50 ± 0.36 mL/min/kg. The Bioavailability ([1]; male SD rats, PO 10 mpk vs IV 2 mpk) was 44.65%, the AUC0-inf ([1]; male SD rats, PO 10 mpk, 10 mg/kg) was 32.68473 ± 13.43235 µM·h and the C0 [1, 4] was 11.5 ± 2.72 µM. It also gave a half-life [1, 4] of 96.6 ± 6.6 min, an MRT inf [1, 4] of 2.08 ± 0.08 h and a Vd ([1]; male, Sprague-Dawley, rat, plasma, iv, 2 mg/kg, male SD rats, IV 2 mpk, read-out: Vdss) of 0.69 ± 0.03 L/kg. The Cmax [1, 5] was 7.76 ± 5.15 µM, the half-life [1, 5] was 135 ± 1.2 min and the MRT inf [1, 5] was 4.09 ± 0.87 h. The Tmax ([1]; male, Sprague-Dawley, rat, plasma, po, 10 mg/kg, male SD rats, PO 10 mpk, read-out: Tmax) was 3 ± 1.73 h, the “Stability after co-incubation with human plasma” value ([2]; 2 hours) was “very stable” and the “Recovery (% remaining)” value ([2]; human plasma, 2 μM, 37° C., 120 min) was 100.4%. For the same molecule, the recovery at 0 min, 2 μM ([2]; human, plasma, pH 7.4, human plasma, 2 μM, 37° C., 0 min, read-out: Recovery (% remaining)) was 100%, the recovery at 10 min, 2 μM ([2]; human, plasma, pH 7.4, human plasma, 2 μM, 37° C., 10 min, read-out: Recovery (% remaining)) was 100% and the recovery at 30 min, 2 μM ([2]; human, plasma, pH 7.4, human plasma, 2 μM, 37° C., 30 min, read-out: Recovery (% remaining)) was 99.5%. It also gave a recovery at 60 min, 2 μM ([2]; human, plasma, pH 7.4, human plasma, 2 μM, 37° C., 60 min, read-out: Recovery (% remaining)) of 99.4%.

— US10183915B2, “Axially chiral isomers, and preparation methods therefor and pharmaceutical uses thereof” (MEDSHINE DISCOVERY INC., priority 2015, dated 2019)
